Measured values from patent US11337984B2, “Methods for treating, diagnosing and prognosing a haematological malignancy” (Institut de Recerca Contra La Leucèmia Josep Carreras, priority 2014, dated 2022).
Entries after “also recorded” stand apart in the source; their conditions may differ.

Legend:
[1] = tested on: primary AML samples; test: Clonogenic capacity (CFU-B) of primary AML samples in methylcellulose; type: cell-based, human; settings: 10 μM for 18 h, then 14 days in methylcellulose
Method: FIG. 10. The clonogenic capacity of primary AML samples is reduced upon 5HTR antagonist treatment. […] Cells were then cultivated in Methylcellulose supplemented with hematopoietic cytokines for 14 days. The number of CFU-B obtained was measured by microscopy based on morphological criteria. 7 primary AML blood samples were analyzed. Each symbol represents a specific patient sample. Lines represent the median. *p<0.05. CFU-B: Blast colony-forming units.
Taking into account that 5HTR antagonists reduced the cell viability of the most primitive AML population, the clonogenic capacity upon treatment was investigated. Primary patient AML samples were cultured in the presence of Apomorphine and Methiothepin for 18 h and plated in a semi-solid methylcellulose media for 14 days in the presence of instructive cytokines at a concentration of fifty thousand cells per mL. Colonies were counted by light microscopy based on morphology and cellularity.

[2] = tested on: primary haematopoietic stem/progenitor cells; test: Viability of lineage-negative umbilical cord blood cells; settings: 10 μM, 24 h
[3] = tested on: primary AML patient samples; test: Myeloid differentiation markers on primary patient AML samples; type: cell-based, human; settings: 0.1, 1 and 10 μM, 72 h
Method: FIG. 6. […] The surface expression of CD11b, CD14 and CD15 was detected by flow cytometry. […] 9 primary AML samples were analyzed in triplicates. Each symbol represents a specific AML patient.
FIG. 7. […] The surface expression of CD11b, CD14 and CD15 was detected by flow cytometry. […] 9 primary AML samples were analyzed in triplicates. Each symbol represents a specific AML patient.

[4] = tested on: healthy hematopoietic stem cells; test: Secondary transplants of engrafted healthy cells in NSG mice; type: in vivo, mouse
Method: FIG. 17. Treatments with 5HTR antagonists reduce the leukemia regeneration capacity of primary AML samples in secondary recipient, without affecting normal hematopoiesis. Upper panel. 3-10×10^5 engrafted bone marrow cells from primary transplanted mice were injected intravenously into secondary recipients (conditioned NSG mice) and left untreated for 8 weeks. Bone marrow cells were analyzed as in FIG. 16. Frequency of human CD45 positive cells referred to control is represented. Lower panel. 50×10^3 engrafted human cells were screened for CFUs. The normalized number of CFUs obtained is represented. *p<0.05; ***p<0.005; ****p<0.0001.
In order to assay the in vivo self-renewal capacity remaining in the engrafted samples, secondary transplants were performed. Less than 35% of AML cells were detected in mice injected with apomorphine- or methiothepin-treated cells (FIG. 17).

[5] = tested on: primary CFU-Bs from AML patients; test: Secondary CFU replating of pretreated primary AML CFU-Bs; type: cell-based, human; settings: primary CFUs pretreated with 10 μM, replated 14 days without drug
[6] = tested on: primary AML patient cells; test: Engraftment of ex vivo treated primary AML cells in NSG mice; set-up: species or system mouse; settings: ex vivo 10 μM for 18 h; bone marrow 8 weeks after transplantation; versus vehicle
Method: FIG. 16. 5HTR antagonist treatment reduces the leukemia regeneration capacity of primary AML cells, whilst sparing healthy hematopoietic stem/progenitor cells. 1-10×10^6 primary AML patient cells or 10-14×10^4 lineage-depleted CB cells were ex vivo treated (10 μM apomorphine, 10 μM methiothepin or vehicle control) for 18 h in IMDM supplemented with 5% heat-inactivated fetal bovine serum and hematopoietic cytokines. Cells were injected IV in previously busulfan (30 mg/kg)-conditioned NSG mice and left 8 weeks untreated. Mice were sacrificed and their bones (iliac crests, femurs and tibias) were harvested and analyzed for the presence of human leukemia (upper panel) or healthy blood (lower panel) cells by flow cytometry. Four AML patient samples and three umbilical cord blood (UCB) samples were tested. *p<0.05; **p<0.01.
Leukemia-initiating cells (LIC) or LSCs are responsible for the engraftment of AML cells in xenograft mouse models and are thought to initiate and maintain the disease in humans. Primary AML patient samples were treated ex vivo with 5HTR antagonists for 18 h and transplanted into conditioned immunodeficient NSG mice. Eight weeks after transplantation, murine bone marrow was analyzed for the presence of human AML cells.

[7] = tested on: HL-60, KG-1, MonoMac-1 and Kasumi-1 AML cell lines; test: Cell viability of AML cell lines by flow cytometry (7-AAD/Hoechst, volumetric count); type: cell-based, human
Method: FIG. 1. […] 10^6 HL-60, KG-1, MonoMac-1 and Kasumi-1 cells per mL in complete RPMI media were treated with 0.1, 1 and 10 μM Apomorphine for 72 h. […] Cells were stained with 7-aminoactinomycin D (7-AAD, CAS no. 7240-37-1) and Hoechst 33342 (CAS no. 23491-52-3) and analyzed by flow cytometry. […] Cell number was calculated by volumetric count. A. The mean (symbol) for each AML cell line and standard deviation (error bars) from 6 different biological replicates are represented. B. The average corresponding to the four different AML cell lines is represented. *p<0.05.
FIG. 2. […] Cell number was calculated by volumetric count. A. The mean (symbol) for each AML cell line and standard deviation (error bars) from 6 different biological replicates are represented. B. AML cell lines were treated with 10 μM Apomorphine or Methiothepin in the presence or absence of 5-CT or 5-HT. *p<0.05. Apo: apomorphine; Methio: methiothepine.
In order to test the anti-leukaemic effect of 5HTR antagonists, HL-60 (Collins, Gallo et al. Nature. 1977; 270(5635):347-9), MonoMac-1 (Steube, Teepe et al. Leuk Res. 1997; 21(4):327-35), KG-1 (Koeffler and Golde. Science. 1978; 200(4346):1153-4) and Kasumi-1 (Asou, Tashiro et al. Blood. 1991; 77(9):2031-6) AML (Acute Myeloid Leukaemia) cell lines were treated with the broad 5HTR antagonist Apomorphine (CAS no. 314-19-2) at different doses for 72 h. One million cells per mL were seeded in complete RPMI media supplemented with 10% fetal bovine serum in a 96-well plate. The concentration used for the Apomorphine treatment was 0.1, 1 and 10 μM.
The human 5HTR family is composed by 7 subtypes (from 1 to 7) of receptors […]. HL-60, KG-1, MonoMac-1 and Kasumi-1 AML cell lines were incubated with subtype-specific 5HTR antagonists: Apomorphine (type 1, 2 and 5), Methiothepin (type 1 and 2) (CAS no. 74611-28-2), Amperozide (type 2) (CAS no. 75558-90-6), GR113808 (type 4) (CAS no. 144625-51-4). 72 h after treatment, cell viability was determined by flow cytometry. Cells were stained with 7-AAD (CAS no. 7240-37-1) and Hoechst 33342 (CAS no. 23491-52-3). Viability cells were identified by 7-AAD staining exclusion and the presence of Hoechst positive stain. Cell counts were measured by volume. […] In fact, the anti-leukaemic effect was reversed in the presence of a competitive agonist such as the natural ligand 5-HT (CAS no. 153-98-0) or 5-CT (CAS no. 74885-72-6).

CN1CCc2cccc3c2[C@H]1Cc1ccc(O)c(O)c1-3 [Apomorphine, (6aR)-6-methyl-5,6,6a,7-tetrahydro-4H-dibenzo[de,g]quinoline-10,11-diol]
clonogenic capacity of primary AML samples (number of CFU-B) [1]: reduced the clonogenic capacity | viability of healthy haematopoietic stem/progenitor cells [2]: remain unaffected | myeloid markers (CD11b, CD14, CD15) on primary AML patient samples [3]: induced the upregulation of myeloid markers; also recorded: induced myeloid differentiation | self-renewal and differentiation capacity of healthy hematopoietic stem cells in secondary transplants [4]: retained their self-renewal and differentiation capacity | clonogenic capacity in secondary CFUs [5]: a reduction in the clonogenic capacity was observed | homing and engraftment capacity of treated AML cells [6]: less homing and engraftment capacity | anti-leukaemic effect in the presence of a competitive agonist (5-HT or 5-CT) ([7]; 10 μM antagonist with 5-CT or 5-HT): reversed | cell viability of AML cell lines ([7]; 0.1, 1 and 10 μM, 72 h, HL-60, KG-1, MonoMac-1, Kasumi-1): a reduction in cell viability was detected in a dose-response fashion; also recorded: reduced AML cell viability | cell death on AML cell lines ([7]; subtype-specific 5HTR antagonists, 0.1, 1 and 10 μM, 72 h): induced cell death
